Data reported in US20110306579A1, “METHODS OF NEUROPROTECTION USING NEUROPROTECTIVE STEROIDS AND A VITAMIN D” (EMORY UNIVERSITY, priority 2009, published 2011).

Legend:
[1] = test system: moderate to severe TBI patients; details: cited from earlier work
[2] = test system: 20-month old Fischer 344 rats; assay: Cerebral edema analysis after cortical contusion brain injury; type: in vivo, rat; details: 4 mg/kg
Method: The methodology used is described in VanLandingham et al., Neuropharmacology, 2006, 51, 1078-1085.
Sterile surgical procedures were used to prevent animal infection. Rats (20-month old Fischer 344 rats, which are the “human” equivalent of about 60 years old) were anesthetized and maintained on isoflurane and an equivalent amount of […] and O2 for 3 min prior to surgery. After brain contusion, O2 levels were doubled compared to […] and maintained through the reainder of the surgery procedure. A stereotaxic apparatus was used to stabilize the head in a horizontal position. Core body temperature was monitored and maintained at 37° C. using a Harvard homeothermic blanket (Harvard Apparatus, Holliston, Mass.). There was no direct measure used to deterct brain temperature. Blood oxygen and heart rate were maintained using a SurgiVet monitor (SurgiVet, Waukesha, Wis.) and maintained above 90% and 340 bpm respectively. A midline incision was made and the scalp retracted. A bilateral 6-mm craniotomy was performed with surgical drill centered at 3 mm rostral to bregma. The stainless steel impactor was positioned over the MFC at 3.0 mm A/P and 0.0 M/L. These coordinates represent the MFC as described by Paxinos and Watson (The Rat Brain in Stereotaxic Coordinates, Academic Press, San Diego, 1986). The cortical injury was induced using a pneumatically controlled device (Hoffman et al., J. Neurotrauma, 1994, 11, 417-431). Brain impact duration was 0.5 s. using a 5-mm impactor tip with a velocity set at 2.125 m/s and a cortical depth of 2 mm. Following the contusion, bleeding was halded and fascia and scalp were sutured shut. After surgery, animals were allowed to recover from anesthesia on a homeothermic heating blanket in a holding cage until awake. sham surgeries controlled for anesthesia and stress. All surgical procedures were the same, except that sham rates were not given a craniotomy or cortical injury. Previous studies using craniotomy as a control found no differences between shams with or without this procedure. (Goss et al., Pharmacol. Biochem. Behay. 2003, 76(2), 231-242).
These experimental solutions were then diluted 1:1 with sterile water for a final concentration of HBC of 22.5%.
All injections were done at the same time with brain harvesting at 24 h post-injury. Rats in each group were weightd prior to treatment to ensure proper dosage. The first injection at 1 h after surgery was given intraperitoneally to ensure rapid adsorption. All subsequent injections were made subcutaneously for gradual adsorption at 6 and 24 h. Injection times and neurosteroid doses were based on previous results of neurosteroid treatment (Roof et al., Twenty First Annual Meeting of the Society for Neuroscience, Miami Beach Fla., p. 191 and He et al., Exp. Neurol. 2004, 189, 404-412). The sterioids were dissolved in vehicle (22.5% 2-hydroxypropyl-b-cyclodextrin solution) at 4 mg/kg. The sham group received no treatment and injury control group received vehicle only.
At 24 h after traumatic brain injury flresh brains were extracted from the skull and the dorsal cerebrum was separated along the line of the lateral fissure. Four 3-mm coronal sections were cut rostral to caudal, placed in pre-weighed 1.5 mL tubes and re-weighed (wet weight). Tubes were then left uncapped and placed in a vacuum oven set at 60° C. with an atmospheric pressure of 0.3 for 48 h. Following tube recapping, the tissue samples were again weighed (dry weight). Cerebral edema (% water content) was determined as the difference in wet and dry weights divided by wet weight (Roof and Stein Restor. Neurol. Ncurosci., 1992, 4, 425-427). Edema measures are reflective of the difference inwater content between at the average of the two most rostral (injury region) segments and most caudal (occipital cortex) segments of the dorsal sections of the brain.

[3] = test system: 20-month-old male Fischer 344 rats; assay: Spontaneous locomotor activity (open field) after TBI; type: in vivo, rat; details: 72 hours after injury; normalized to sham
Excerpt: The animals in this study were separated into two groups, vitamin D normal (D-normal) and vitamin D deficient (D-deficient). […] Animals in the D-deficient group were maintained on the diet for at least 21 days prior to surgery. […] For this same reason the null diet was not altered in any other way, and the rats assigned to the D-deficient group were maintained on it until they were killed for harvesting of brain tissue. Since vitamin D is activated by UVB light (280-315 nm wavelength), the overhead lights were modified to not produce radiation in this range.
Animals dehydrated due to blood loss were given 3 mL of lactated Ringer's solution subcutaneously within 6 hours of injury.
Animals were assigned to D-normal or D-deficicnt groups. […] The same assignment was followed for both 24-hour and 72-hour survival groups. […] All drug treatments were dissolved in vehicle, and injection volume was equally proportional to each animal's weight across all groups. The intact sham (SHAM) groups served to provide baseline data and therefore received no injury or injections.
In addition to molecular measures of inflammatory cytokines, the behavioral effects of the various treatments were examined. Since this study was limited to the short term effects on inflammation, only short-term Spontaneous Locomotor Activity was used.

Compound: CC(=O)[C@H]1CCC2C3CCC4=CC(=O)CC[C@]4(C)C3CC[C@@]21C (some centres unmarked) [progesterone]
- reduction of mortality ([1]; 3 days of intravenous treatment, 100 patients): over 60%
- functional outcomes ([1]; 30 days post-injury): significantly improved functional outcomes
- edema compared to subjects treated with vehicle ([2]; 24 hours post brain injury): decrease in edema
- mean % difference edema ([2]; brain tissue 24 hours post brain injury, i.p. at 1 h, s.c. at 6 and 24 h): 2.0%
- spontaneous locomotor activity (total distance, resting, stereotypy, movement time) [3]: little or no benefit
